Results as given in PubChem BioAssay (NCI).
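GI50 = concentration required for 50% inhibition of growth. TGI marks complete inhibition of growth.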

Experiments:
Assay in all cases: NCI anticancer screen, dose series, 384-well format
SNB-19 CNS = test system: SNB-19 CNS
K-562 leukemia = test system: K-562 leukemia
A498 renal = test system: A498 renal
SR leukemia = test system: SR leukemia
OVCAR-3 ovarian = test system: OVCAR-3 ovarian
NCI-H226 lung = test system: NCI-H226 lung
SK-OV-3 ovarian = test system: SK-OV-3 ovarian
MALME-3M melanoma = test system: MALME-3M melanoma
SF-268 CNS = test system: SF-268 CNS
SF-539 CNS = test system: SF-539 CNS
TK-10 renal = test system: TK-10 renal
SK-MEL-2 melanoma = test system: SK-MEL-2 melanoma
BT-549 breast = test system: BT-549 breast
SW-620 colon = test system: SW-620 colon
OVCAR-4 ovarian = test system: OVCAR-4 ovarian
UACC-62 melanoma = test system: UACC-62 melanoma
CCRF-CEM leukemia = test system: CCRF-CEM leukemia
MDA-MB-231 breast = test system: MDA-MB-231 breast
HCT-116 colon = test system: HCT-116 colon
RPMI-8226 leukemia = test system: RPMI-8226 leukemia
CAKI-1 renal = test system: CAKI-1 renal
U251 glioblastoma = test system: U251 glioblastoma
HCT-15 colon = test system: HCT-15 colon
SN12C renal = test system: SN12C renal
UACC-257 melanoma = test system: UACC-257 melanoma
HOP-92 NSCLC = test system: HOP-92 NSCLC
HL-60(TB) leukemia = test system: HL-60(TB) leukemia
SF-295 CNS = test system: SF-295 CNS
LOX IMVI melanoma = test system: LOX IMVI melanoma
MOLT-4 leukemia = test system: MOLT-4 leukemia
SNB-75 CNS = test system: SNB-75 CNS
UO-31 renal = test system: UO-31 renal
SK-MEL-5 melanoma = test system: SK-MEL-5 melanoma
MDA-MB-468 breast = test system: MDA-MB-468 breast
HCC-2998 colon = test system: HCC-2998 colon
IGROV1 ovarian = test system: IGROV1 ovarian
DU-145 prostate = test system: DU-145 prostate
MDA-MB-435 melanoma = test system: MDA-MB-435 melanoma
MCF7 breast = test system: MCF7 breast
COLO 205 colon = test system: COLO 205 colon
PC-3 prostate = test system: PC-3 prostate
NCI-H23 lung = test system: NCI-H23 lung
HOP-62 NSCLC = test system: HOP-62 NSCLC
M14 melanoma = test system: M14 melanoma
A549 NSCLC = test system: A549 NSCLC
EKVX NSCLC = test system: EKVX NSCLC
RXF 393 renal = test system: RXF 393 renal
KM12 colon = test system: KM12 colon
NCI-H522 lung = test system: NCI-H522 lung
SK-MEL-28 melanoma = test system: SK-MEL-28 melanoma
OVCAR-5 ovarian = test system: OVCAR-5 ovarian
ACHN renal = test system: ACHN renal
NCI-H460 NSCLC = test system: NCI-H460 NSCLC
HT29 colon = test system: HT29 colon
NCI/ADR-RES ovarian = test system: NCI/ADR-RES ovarian
NCI-H322M lung = test system: NCI-H322M lung
T-47D breast = test system: T-47D breast
786-0 renal = test system: 786-0 renal
HS 578T breast = test system: HS 578T breast

O=[N+]([O-])c1ccc(Nc2ccccc2-c2ccccc2)c2nonc12
GI50 (SNB-19 CNS): 12.9 µM
TGI (SNB-19 CNS): 35.1 µM
GI50 (K-562 leukemia): 11.5 µM
TGI (K-562 leukemia): 28.6 µM
GI50 (A498 renal): 14.9 µM
TGI (A498 renal): 32.3 µM
GI50 (SR leukemia): 19 µM
TGI (SR leukemia): 33.3 µM
GI50 (OVCAR-3 ovarian): 11.9 µM
TGI (OVCAR-3 ovarian): 25.1 µM
GI50 (NCI-H226 lung): 11.2 µM
TGI (NCI-H226 lung): 23.6 µM
GI50 (SK-OV-3 ovarian): 19.9 µM
TGI (SK-OV-3 ovarian): 40.4 µM
GI50 (MALME-3M melanoma): 16.8 µM
TGI (MALME-3M melanoma): 36.3 µM
GI50 (SF-268 CNS): 15.6 µM
TGI (SF-268 CNS): 34.1 µM
GI50 (SF-539 CNS): 17.4 µM
TGI (SF-539 CNS): 33.2 µM
GI50 (TK-10 renal): 14 µM
TGI (TK-10 renal): 34.8 µM
GI50 (SK-MEL-2 melanoma): 23 µM
TGI (SK-MEL-2 melanoma): 37.9 µM
GI50 (BT-549 breast): 17.1 µM
TGI (BT-549 breast): 32.2 µM
GI50 (SW-620 colon): 16.4 µM
TGI (SW-620 colon): 35.7 µM
GI50 (OVCAR-4 ovarian): 7.68 µM
TGI (OVCAR-4 ovarian): 28.4 µM
GI50 (UACC-62 melanoma): 13.6 µM
TGI (UACC-62 melanoma): 28.3 µM
GI50 (CCRF-CEM leukemia): 11.3 µM
TGI (CCRF-CEM leukemia): 23.6 µM
GI50 (MDA-MB-231 breast): 16.2 µM
TGI (MDA-MB-231 breast): 35.1 µM
GI50 (HCT-116 colon): 13.9 µM
TGI (HCT-116 colon): 28.2 µM
GI50 (RPMI-8226 leukemia): 7.48 µM
TGI (RPMI-8226 leukemia): 20 µM
GI50 (CAKI-1 renal): 14.5 µM
TGI (CAKI-1 renal): 33.3 µM
GI50 (U251 glioblastoma): 11.2 µM
TGI (U251 glioblastoma): 25.7 µM
GI50 (HCT-15 colon): 14.3 µM
TGI (HCT-15 colon): 29.2 µM
GI50 (SN12C renal): 11.9 µM
TGI (SN12C renal): 28.6 µM
GI50 (UACC-257 melanoma): 16.5 µM
TGI (UACC-257 melanoma): 36.1 µM
GI50 (HOP-92 NSCLC): 10.5 µM
TGI (HOP-92 NSCLC): 24.8 µM
GI50 (HL-60(TB) leukemia): 13.3 µM
TGI (HL-60(TB) leukemia): 26.5 µM
GI50 (SF-295 CNS): 10.1 µM
TGI (SF-295 CNS): 22.9 µM
GI50 (LOX IMVI melanoma): 15.9 µM
TGI (LOX IMVI melanoma): 29.7 µM
GI50 (MOLT-4 leukemia): 12.8 µM
TGI (MOLT-4 leukemia): 25.6 µM
GI50 (SNB-75 CNS): 14.1 µM
TGI (SNB-75 CNS): 34 µM
GI50 (UO-31 renal): 13 µM
TGI (UO-31 renal): 27.5 µM
GI50 (SK-MEL-5 melanoma): 12.9 µM
TGI (SK-MEL-5 melanoma): 25.7 µM
GI50 (MDA-MB-468 breast): 3.96 µM
TGI (MDA-MB-468 breast): 15.4 µM
GI50 (HCC-2998 colon): 22.3 µM
TGI (HCC-2998 colon): 40.8 µM
GI50 (IGROV1 ovarian): 16.1 µM
TGI (IGROV1 ovarian): 36.2 µM
GI50 (DU-145 prostate): 16.3 µM
TGI (DU-145 prostate): 51.2 µM
GI50 (MDA-MB-435 melanoma): 10.7 µM
TGI (MDA-MB-435 melanoma): 30.1 µM
GI50 (MCF7 breast): 13.8 µM
TGI (MCF7 breast): 31.3 µM
GI50 (COLO 205 colon): 17.5 µM
TGI (COLO 205 colon): 42.3 µM
GI50 (PC-3 prostate): 12.8 µM
TGI (PC-3 prostate): 27 µM
GI50 (NCI-H23 lung): 5.93 µM
TGI (NCI-H23 lung): 20.5 µM
GI50 (HOP-62 NSCLC): 13.7 µM
TGI (HOP-62 NSCLC): 28.4 µM
GI50 (M14 melanoma): 13.9 µM
TGI (M14 melanoma): 30.9 µM
GI50 (A549 NSCLC): 14.1 µM
TGI (A549 NSCLC): 30.9 µM
GI50 (EKVX NSCLC): 13.2 µM
TGI (EKVX NSCLC): 30 µM
GI50 (RXF 393 renal): 17.4 µM
TGI (RXF 393 renal): 32.2 µM
GI50 (KM12 colon): 16.4 µM
TGI (KM12 colon): 33 µM
GI50 (NCI-H522 lung): 9.27 µM
TGI (NCI-H522 lung): 22.9 µM
GI50 (SK-MEL-28 melanoma): 13.2 µM
TGI (SK-MEL-28 melanoma): 29.7 µM
GI50 (OVCAR-5 ovarian): 15.8 µM
TGI (OVCAR-5 ovarian): 36.9 µM
GI50 (ACHN renal): 15.6 µM
TGI (ACHN renal): 34.2 µM
GI50 (NCI-H460 NSCLC): 11 µM
TGI (NCI-H460 NSCLC): 24.1 µM
GI50 (HT29 colon): 15.9 µM
TGI (HT29 colon): 33.8 µM
GI50 (NCI/ADR-RES ovarian): 12.7 µM
TGI (NCI/ADR-RES ovarian): 27.9 µM
GI50 (NCI-H322M lung): 17.5 µM
TGI (NCI-H322M lung): 37.3 µM
GI50 (T-47D breast): 7.99 µM
TGI (T-47D breast): 30.9 µM
GI50 ([…]-0 renal): 12.6 µM
TGI (786-0 renal): 25.6 µM
GI50 (HS 578T breast): 10.4 µM
TGI (HS 578T breast): 23.8 µM
